Laboratory results published in ChEMBL document CHEMBL1148727, “Discovery of 1,4-dihydroxy-2-naphthoate [corrected] prenyltransferase inhibitors: new drug leads for multidrug-resistant gram-positive pathogens” (2007).
In brackets after ≈: the same amount, converted by molar mass.

Assays:
Assay type in all cases: functional
[1] = system: Staphylococcus aureus; experiment: Antibacterial activity against methicillin-resistant Staphylococcus aureus Mu50 after 18 hrs by agar plate dilution method; details: Mu50, 18 h
[2] = system: Mycolicibacterium smegmatis; experiment: Antibacterial activity against Mycobacterium smegmatis Takeo after 18 hrs by agar plate dilution method
[3] = system: Mycobacterium tuberculosis; experiment: Antibacterial activity against Mycobacterium tuberculosis H37Rv after 18 hrs by agar plate dilution method
[4] = system: Mycobacterium avium; experiment: Antibacterial activity against Mycobacterium avium Flamingo after 18 hrs by agar plate dilution method
[5] = system: Mycolicibacterium fortuitum; experiment: Antibacterial activity against Mycobacterium fortuitum NIHJ1615 after 18 hrs by agar plate dilution method
[6] = system: Staphylococcus aureus; experiment: Antibacterial activity against Staphylococcus aureus FDA209P after 18 hrs by agar plate dilution method
[7] = system: Mycobacterium intracellulare; experiment: Antibacterial activity against Mycobacterium intracellular ATCC 15984 after 18 hrs by agar plate dilution method; details: ATCC 15984, 18 h
[8] = system: Staphylococcus aureus; experiment: Antibacterial activity against Staphylococcus aureus Smith after 18 hrs by agar plate dilution method
[9] = system: Enterococcus faecalis; experiment: Antibacterial activity against vancomycin-resistant Enterococcus faecalis NCTC-12203 after 18 hrs by agar plate dilution method
[10] = system: Mycolicibacterium aurum; experiment: Antibacterial activity against Mycobacterium aurum after 18 hrs by agar plate dilution method
[11] = system: Enterococcus faecalis; experiment: Antibacterial activity against vancomycin-resistant Enterococcus faecalis NCTC-12201 after 18 hrs by agar plate dilution method
[12] = system: Pseudomonas aeruginosa; experiment: Antibacterial activity against Pseudomonas aeruginosa 46001 by agar plate dilution method
[13] = system: Escherichia coli; experiment: Antibacterial activity against Escherichia coli NIHJ JC2 by agar plate dilution method
[14] = system: Proteus mirabilis; experiment: Antibacterial activity against Proteus mirabilis IFO3849 by agar plate dilution method
[15] = system: Staphylococcus aureus; experiment: Antibacterial activity against vancomycin-resistant Staphylococcus aureus 70 after 18 hrs by agar plate dilution method
[16] = system: Staphylococcus aureus; experiment: Antibacterial activity against methicillin-resistant Staphylococcus aureus 92-1191 after 18 hrs by agar plate dilution method
[17] = system: Klebsiella pneumoniae; experiment: Antibacterial activity against Klebsiella pneumoniae NCTN9632 by agar plate dilution method
[18] = system: Staphylococcus aureus; experiment: Antibacterial activity against Staphylococcus aureus macrolide-resistance after 18 hrs by agar plate dilution method
[19] = system: Staphylococcus aureus; experiment: Antibacterial activity against Linezolid and methicillin-resistant Staphylococcus aureus 06 after 18 hrs by agar plate dilution method
[20] = system: Staphylococcus aureus; experiment: Antibacterial activity against methicillin-resistant Staphylococcus aureus after 18 hrs by agar plate dilution method

SMILES	MIC [1]	MIC [2]	MIC [3]	MIC [4]	MIC [5]	MIC [6]	MIC [7]	MIC [8]	MIC [9]	MIC [10]	MIC [11]	MIC [12]	MIC [13]	MIC [14]	MIC [15]	MIC [16]	MIC [17]	MIC [18]	MIC [19]	MIC [20]
C=CCN(C)CCCCCCCCOc1ccc(C(=O)c2ccc(Cl)cc2)c(O)c1	> 12.5 µg/mL	12.5 µg/mL (≈ 29.1 µM)	1.5 µg/mL (≈ 3.49 µM)	6.3 µg/mL (≈ 14.7 µM)	12.5 µg/mL (≈ 29.1 µM)	> 12.5 µg/mL	6.3 µg/mL (≈ 14.7 µM)	> 12.5 µg/mL	> 12.5 µg/mL	6.3 µg/mL (≈ 14.7 µM)	> 12.5 µg/mL									
CN(CCCOC/C=C/COc1ccc(C(=O)c2ccc(Cl)cc2)c(O)c1)CCc1ccc(F)cc1	8 µg/mL (≈ 15.6 µM)		12.5 µg/mL (≈ 24.4 µM)			4 µg/mL (≈ 7.81 µM)		8 µg/mL (≈ 15.6 µM)	2 µg/mL (≈ 3.91 µM)		8 µg/mL (≈ 15.6 µM)	> 128 µg/mL	> 128 µg/mL	> 128 µg/mL	4 µg/mL (≈ 7.81 µM)	4 µg/mL (≈ 7.81 µM)	> 128 µg/mL	4 µg/mL (≈ 7.81 µM)	8 µg/mL (≈ 15.6 µM)	4 µg/mL (≈ 7.81 µM)
NNC(=O)c1ccncc1 [ISONIAZID]		12.5 µg/mL (≈ 91.1 µM)	0.1 µg/mL (≈ 0.729 µM)	> 25 µg/mL	6.3 µg/mL (≈ 45.9 µM)		12.5 µg/mL (≈ 91.1 µM)			6.3 µg/mL (≈ 45.9 µM)										
CC(=O)NC[C@H]1CN(c2ccc(N3CCOCC3)c(F)c2)C(=O)O1 [LINEZOLID]												> 128 µg/mL	128 µg/mL (≈ 379 µM)	128 µg/mL (≈ 379 µM)			> 128 µg/mL		32 µg/mL (≈ 94.9 µM)	
CO[C@H]1/C=C/O[C@@]2(C)Oc3c(C)c(O)c4c(O)c(c(/C=N/N5CCN(C)CC5)c(O)c4c3C2=O)NC(=O)/C(C)=C\C=C\[C@H](C)[C@H](O)[C@@H](C)[C@@H](O)[C@@H](C)[C@H](OC(C)=O)[C@@H]1C [RIFAMPIN]		> 25 µg/mL	0.2 µg/mL (≈ 0.243 µM)	3.1 µg/mL (≈ 3.77 µM)	> 25 µg/mL		3.1 µg/mL (≈ 3.77 µM)			0.78 µg/mL (≈ 0.948 µM)										
CN[C@H](CC(C)C)C(=O)N[C@H]1C(=O)N[C@@H](CC(N)=O)C(=O)N[C@H]2C(=O)N[C@H]3C(=O)N[C@H](C(=O)N[C@H](C(=O)O)c4cc(O)cc(O)c4-c4cc3ccc4O)[C@H](O)c3ccc(c(Cl)c3)Oc3cc2cc(c3O[C@@H]2O[C@H](CO)[C@@H](O)[C@H](O)[C@H]2O[C@H]2C[C@](C)(N)[C@H](O)[C@H](C)O2)Oc2ccc(cc2Cl)[C@H]1O [VANCOMYCIN]									> 128 µg/mL		> 128 µg/mL	> 128 µg/mL	> 128 µg/mL	> 128 µg/mL			> 128 µg/mL			
